# Source: patent US20080076772A1, “Anti-Inflammatory Agents” (Pharma Mar S.A. Sociedad Unipersonal, priority 2004, published 2008)
# Legend:
# [1] = system: IL-6; experiment: IL-6 production by LPS-stimulated monocytes (ELISA); format: cell-based; conditions: Homo sapiens, Monocyte; 5 nM, n=2; read-out: overall inhibition of IL-6 production, monocytes
# Description: (§1) Supernatants of untreated cells or cells treated with ecteinascidin 743 or other anti-neoplastic agents were collected after 24 h culture and frozen. Monocytes, macrophages and TAM were stimulated with 100 ng/ml LPS to induce maximal cytokine production. Determination of cytokines CCL2, TNF and IL-6 was measured by specific ELISA following the manufacturer's instructions.
# (§2) Monocytes and in vitro differentiated macrophages were stimulated with LPS (100 ng/ml). After 1 h LPS stimulation they were treated with ecteinascidin 743. After 16 h incubation, cell supernatants were harvested and tested in ELISA. Under these treatment conditions cell viability was usually >85% for concentrations up to 5 nM. […] Mean inhibition at 5 nM, for monocytes, was 65% (range 50-80%, n=5) and was 50% (range 25-75%, n=5) for in vitro differentiated macrophages. Results are mean+/−SE of 3-5 experiments
# We also tested two other cytokines, IL-6 and TNF, produced by macrophages and tumour cells, which have inflammatory properties and also act as growth factors for some tumours. IL-6 production was always reduced after ecteinascidin 743 treatment, with an overall inhibition at 5 nM of 54% (range 51-57%, n=2) and 69% (range 66-72%, n=2), in monocytes and macrophages, respectively (FIG. 6B). […]
# [2] = system: macrophage differentiation; experiment: In vitro macrophage differentiation of monocytes with M-CSF (phenotype analysis); format: cell-based, human; conditions: 1 nM, 5 days with M-CSF 20 ng/ml
# Description: Expression of cell membrane markers was performed by immunofluoresce and analyzed by Flow Cytometry. Cells were incubated with anti-CD14, anti-CD16, anti-CD68, anti-CD206 (mannose receptor) and then with FITC-goat anti-mouse Ig as described. At least 10,000 cells were analyzed.
# In order to study the effect of ecteinascidin 743 on macrophage differentiation, non cytotoxic doses of the drug were used. Monocytes were cultured with M-CSF (20 ng/ml) and with sub-cytotoxic concentrations of ecteinascidin 743 for 5 days. Phenotype analysis was performed by indirect immunofluorescence and analyzed in Flow Cytometry by gating on large cells. Usually, an average of 65±15% (mean±SD of>10 experiments) of input monocytes differentiate into large cells expressing typical macrophage markers, including CD16, CD68 and CD206 (mannose receptor). After 5 days of culture monocyte viability, evaluated by propidium iodide staining in flow cytometry, was 92% and 70% of untreated cells at 0.5 and 1 nM ecteinascidin 743, respectively.
# [3] = system: CCL2; experiment: Constitutive CCL2 production by freshly isolated ovarian tumour cells (ELISA); format: cell-based, human; conditions: 16 h
# From the text: Tumour-associated macrophages (TAM) and tumour cells were isolated from the ascitic fluid of patients with diagnosed ovarian adenocarcinoma, admitted to the Clinic of Obstetrics and Gynecology of the University of Milan-Bicocca, S Gerardo Hospital. Cells contained in the ascitic fluid were centrifuged and isolated by differential density gradients of Ficoll and Percoll, and plastic adherence as previously described (see Allavena, P., Peccatori, F., Maggioni, D., Erroi, A., Sironi, M., Colombo, N., Lissoni, A., Galazka, A., Meiers, W., Mangioni, C., et al. Intraperitoneal recombinant gamma-interferon in patients with recurrent ascitic ovarian carcinoma: modulation of cytotoxicity and cytokine production in tumour-associated effectors and of major histocompatibility antigen expression on tumour cells. Cancer Res, 50: 7318-7323, 1990). Purity of TAM and tumour cell preparations was usually>65±10% as defined by morphology and phenotype analysis. Cells were treated with ecteinascidin 743 at the indicated concentrations and cultured for 1-5 days, as specified in figure legends. […]
# Monocytes, macrophages and TAM were stimulated with 100 ng/ml LPS to induce maximal cytokine production. Determination of cytokines CCL2, TNF and IL-6 was measured by specific ELISA following the manufacturer's instructions. […]
# [4] = system: CCL2; experiment: CCL2 production by LPS-stimulated in vitro differentiated macrophages (ELISA); format: cell-based; conditions: Homo sapiens, Macrophage; 5 nM, LPS 100 ng/ml, 16 h, n=5
# Description: as §1, §2
# [5] = system: TNF; experiment: TNF production by LPS-stimulated TAM (ELISA); format: cell-based, human; conditions: LPS 100 ng/ml, 16 h incubation, up to 10 nM
# Description: Monocytes, macrophages and TAM were stimulated with 100 ng/ml LPS to induce maximal cytokine production. Determination of cytokines CCL2, TNF and IL-6 was measured by specific ELISA following the manufacturer's instructions.
# To verify whether the inhibitory effect of ecteinascidin 743 on cytokine production was at the transcriptional level, we analyzed mRNA of CCL2 and TNF from LPS-stimulated macrophages by real time-PCR of CCL2 and TNF transcripts in LPS-stimulated monocytes exposed to ecteinascidin 743.
structure (smiles),measurement,setting,value
COc1cc2c(cc1O)CCN[C@]21CS[C@@H]2c3c(OC(C)=O)c(C)c4c(c3[C@H](COC1=O)N1[C@@H]2[C@H]2c3c(cc(C)c(OC)c3O)C[C@@H]([C@@H]1O)N2C)OCO4 [ecteinascidin 743],inhibition at 0.005 µM,[1],54%
same,"de novo expression of CD68, CD16 and CD206",[2],reduced
same,constitutive production of CCL2 by freshly isolated tumour cells,[3],reduced
same,inhibition at 0.005 µM,[4],50%
same,production of TNF by TAM,[5],never inhibited
